Source: the NIST ThermoML archive (doi:10.1016/j.tca.2006.04.004)
± gives the expanded uncertainty stated by the source.

Experiments:
[1] = mn = molality of the nth substance listed, in mol/kg; settings: 101 kPa, Liquid, Pycnometric method, m1 = 1.5
[2] = 101.33 kPa, Liquid, Pycnometric method

SMILES	mass density ([1]; 298.15 K) [kg/m3]	mass density ([1]; 303.15 K) [kg/m3]	mass density ([1]; 308.15 K) [kg/m3]	mass density ([1]; 313.15 K) [kg/m3]	mass density ([1]; 318.15 K) [kg/m3]	mass density ([1]; 323.15 K) [kg/m3]	mass density ([2]; 308.15 K) [kg/m3]	mass density ([2]; 318.15 K) [kg/m3]	mass density ([2]; 323.15 K) [kg/m3]
[Cl-].[Na+] [sodium chloride] + O	1058.8 ± 0.6	1056.1 ± 0.6	1053.8 ± 0.6	1051.4 ± 0.6	1048.8 ± 0.6	1046.2 ± 0.6	–	–	–
O=[N+]([O-])[O-].[Na+] [sodium nitrate] + O	1079.1 ± 0.6	1076.5 ± 0.6	1073.5 ± 0.6	1070.3 ± 0.6	1067 ± 0.6	1063.7 ± 0.6	–	–	–
O=[N+]([O-])[O-].[K+] [potassium nitrate] + O	1086.9 ± 0.6	1085 ± 0.6	1083 ± 0.6	1080.6 ± 0.6	1077.9 ± 0.6	1075 ± 0.6	–	–	–
O [water]	–	–	–	–	–	–	994.2 ± 0.5	990.3 ± 0.5	987.9 ± 0.5
